Results reported in patent publication US11590244B2, “Methods for renal function determination” (MediBeacon Inc., priority 2017, dated 2023).
Read-outs that look alike come from different tables or passages of the source.

How the values were obtained:
[1] = Clinical pharmacokinetic study of MB-102 given intravenously: plasma and urine collection; assay type: in vivo, human; details: for half-life: plasma
Protocol: In a clinical study, 60 human patients were administered MB-102 ((2R,2′R)-2,2′-((3,6-diaminopyrazine-2,5-dicarbonyl)bis(azanediyl))bis(3-hydroxypropanoic acid)) prepared in Example 12) intravenously. Blood and urine were collected in addition to the methods and techniques disclosed herein. Standard pharmacokinetic data was collected and comparison was made between the methods and techniques disclosed herein to Omnipaque® (iohexol), a known contrast agent used for GFR determination.
Shown in FIGS. 3A to 3D are data collected from the 60 human patients tested with MB-102. Plasma pharmacokinetic data was collected and analyzed using methods known in the art and compared to the data measured using the methods and techniques disclosed herein.
FIGS. 3A to 3D illustrate a two compartment pharmacokinetic model for the elimination of MB-102. The model is consistent for patients regardless of their GFR values. FIG. 3A is for patients having normal kidney function having a measured GFR (mGFR) of 120 mL/min. FIG. 3B is for patients having a mGFR of 81 mL/min. FIG. 3C is for patients having a mGFR of 28 mL/min. FIG. 3D is for patients having a mGFR of 25 mL/min. The first compartment in the two compartment model is the vascular to tissue equilibrium while the second compartment illustrates renal excretion only. On average, the time for equilibration is about one hour, and is subject dependent.
As part of the clinical 1 study for MB-102, urine was collected from patients for 12 hours to determine the amount recovered and degree of secondary metabolism. […] For patients having normal, stage 1 and stage 2 renal function, 12 hour collection time was sufficient for greater than 99% recovery of MB-102. In view of the pharmacokinetic data and the plasma half-life determination, less than complete collection is readily understood for patients having more serious renal function impairment.
Shown in FIG. 6 is the plasma concentration half-life of MB-102 for patients having either normal kidney function, stage 1 renal impairment, stage 2 renal impairment, stage 3 renal impairment, or stage 4 renal impairment.

[2] = Stability testing, HPLC evaluation of stored samples; assay type: physicochemical; details: 25° C. and 60% relative humidity
Protocol: Samples of MB-102 were prepared and stored at 25° C. and 60% relative humidity for 24 months. HPLC evaluation of each sample was performed at various time points to assess the stability of the samples.

[3] = patients having a mGFR value below 60, 12 hours

Nc1nc(C(=O)N[C@H](CO)C(=O)O)c(N)nc1C(=O)N[C@H](CO)C(=O)O [MB-102]
time for equilibration (vascular to tissue equilibrium) ([1]; human patients, intravenous, on average, subject dependent): about one | half-life ([1]; human, intravenous, stage 2 and 3 groups (so in the source), read-out: average plasma half-life (converted)): 2.5 h | half-life ([1]; human, intravenous, stage 3 renal impairment, read-out: plasma half-life (converted)): 4 h | half-life ([1]; human, intravenous, stage 4 renal impairment, read-out: plasma half-life (converted)): 8 h | dose excreted ([1]; human, urine, intravenous, patients having normal, stage 1 and stage 2 renal function, 12 hour collection time, read-out: recovery from urine): > 99% | average plasma half-life ([1]; normal renal function group): two | degree of secondary metabolism (urine) [1, 3]: unmetabolized | recovery from urine [1, 3]: a lower percentage was recovered | recovered unmetabolized from urine ([1]; patients having an eGFR greater than 60, after 12 hours): greater than 99% | Purity (HPLC) ([2]; 0 months): >99% | Purity (HPLC) ([2]; 6 months): >99% | Purity (HPLC) ([2]; 12 months): 98.9% | Purity (HPLC) ([2]; 18 months): 98.3% | Purity (HPLC) ([2]; 24 months): 97.8%
